Results taken from patent publication US9895390B2, “Methods and assays for combination treatment of cancer” (CHILDREN'S MEDICAL CENTER CORPORATION, priority 2012, dated 2018).
Where “and” joins values, the source holds several entries; their conditions need not be identical. Equal values may be shown once.

Experiments:
human NSCLC lines = test: Cytotox assays: chemotherapy dose response curves with or without EZH2 inhibitor, 4 days; type: cell-based
Method: Cell lines were dissociated, counted and plated at 5000 cells per well in flat bottom opaque tissue culture treated 96 well plates (CytoOne). Edge wells were filled with PBS. The following day, 2× drug diluted in media was added to each well such that the well then contained 100 ul media with 1× drug concentration. After 4 days, Cell Titer Glo™ (Promega) was added and luminescence was read on a BioTec plate reader to determine relative cell number in each well. Data were averaged for triplicate or quadruplicate technical replicates, normalized to the untreated wells and input into GraphPad Prism software to extrapolate IC50.
Cell lines were dissociated, counted and plated at 5000 cells per well in flat bottom opaque tissue culture treated 96 well plates (CytoOne). Edge wells were filled with PBS. The following day, 2× drug diluted in media was added to each well such that the well then contained 100 ul media with 1× drug concentration at the following doses: etoposide; 0, 0.1, 1, 3, 5, 7, 10, 50, 100, 500 μM, cisplatin; 0, 0.1, 1, 5, 10, 30, 70, 100, 500 μM, or doxorubicin; 0, 0.01, 0.1, 0.5, 1, 3, 5, 7, 10, 50 μM. […] Data were averaged for triplicate or quadruplicate technical replicates and normalized to the untreated wells. Results from three or four independent biological replicate experiments were input into […] PRISM™ software to extrapolate IC50 and s.e.m. of IC50 for a given cell line.

EZH2 and H3K27me3 = test: Western Blot for EZH2 and H3K27me3 on whole cell extracts; type: cell-based, human; conditions: 1 μM DZNep, 4 days
Method: For Western blotting, 25 μg of protein extract per sample was denatured with heat and reducing agents, separated on a 4-12% acrylimide gel and transferred to nitrocellulose. Antibodies used for Western blotting were: EZH2 (Cell Signalling), β-actin (AbCAM) and H3K27me3 (Upstate).
Whole cell extracts were made in RIPA buffer (0.5% Deoxycholate, 1% IGEPAL-CA630, 0.1% sodium dodecyl sulfate, 150 mM NaCL, 50 mM Tris-8.1), lysates were cleared by centrifugation, and protein concentrations were quantified with the Pierce BCA Protein Assay Kit (Thermo). For Western blotting, 25 μg of protein extract per sample was denatured with heat and reducing agents, separated on a 4-12% acrylimide gel (BioRad) and transferred to nitrocellulose (GE Healthcare). Antibodies used for Western blotting were: EZH2 (clone D2C9; Cell Signaling; 1:200), Histone H3 (polyclonal; AbCAM ab1791; 1:2000) and H3K27me3 (polyclonal; Millipore 07-449; 1:1000) all incubated overnight at 4° C. Secondary antibody, anti-rabbit-HRP (Santa Cruz sc-2313; 1:5,000), was incubated for 1 hour at room temperature. After washing, chemi-luminescence was visualized with Western Lightning Plus-ECL (PerkinElmer) and exposure onto KODAK BioMax XAR™ film.

For `Nc1nccc2c1ncn2[C@@H]1C=C(CO)[C@@H](O)[C@H]1O` [DZNep, 3-Deazaneplanocin A], the “cell lines more sensitive to etoposide in the presence of DZNep” value (human NSCLC lines; 1 μM DZNep, 4 days, panel of 29 (Example 1) or 26 (Example 2) lines) was 16 of the 29 and 14 of the 26, the “sensitivity to etoposide in the presence of DZNep, protected lines” value (human NSCLC lines; H23, H460 and H441, 1 μM DZNep, 4 days) was “less sensitive” and the “sensitivity to etoposide in the presence of DZNep, sensitized lines” value (human NSCLC lines; H157, HCC15, PC9, H157, A549, PC9, 1 μM DZNep, 4 days) was “more sensitive”. For the same compound, the “pattern of sensitized and protected cells with cisplatin combined with DZNep” value (human NSCLC lines; cis-platinum combined with DZNep) was “not observed” and the “EZH2 protein abundance and H3K27me3 catalytic mark” value (EZH2 and H3K27me3) was “effectively reduced”.
